From patent US8759339B2, “Pyrrolo[2,1-c][1,4]naphthodiazepine linked piperazine compounds and a process for the preparation thereof” (Council of Scientific & Industrial Research, priority 2011, dated 2014)
Where two headings read alike, the source gives them in different places.

Legend:
calf thymus DNA (CT-DNA) = experiment: Thermal denaturation studies with duplex-form calf thymus DNA; assay type: binding; conditions: [PND]/[DNA] molar ratio 1:5, CT-DNA 100 μM, ligand 20 μM, aqueous sodium phosphate buffer pH 7
Method: Compounds have been subjected to thermal denaturation studies with duplex-form calf thymus DNA (CT-DNA) using an modification of a reported procedure (Newman, M. S. Carcinog-compr. Surv. 1976, 1, 203; (b) Hecht, S. S.; Loy, M.; Hoffman, Carcinog-compr. Surv. 1976, 1, 325). Working solutions in aqueous buffer (10 mM NaH2PO4/Na2HPO4, 1 mM Na2EDTA, pH 7.00+0.01) containing CT-DNA (100 μm in phosphate) and the PND (pyrrolo naphtha diazepine) (20 μm) have been prepared by addition of concentrated PND (pyrrolo naphtha diazepine) solutions in DMSO to obtain a fixed [PND]/[DNA] molar ratio of 1:5. The DNA-PND (pyrrolo naphtha diazepine) solutions have been incubated at 37° C. for 0 and 18 h prior to analysis. Samples have been monitored at 260 nm using a Beckman DU-800 spectrophotometer fitted with high performance temperature controller, and heated at 1° C. min in the 40-110° C. range. DNA helix→coil transition temperatures (Tm) have been obtained from the maxima in the d(A260)/dT derivative plots. Drug-induced alterations in DNA melting behavior are given by: ΔTm=Tm(DNA+PND)−Tm(DNA alone), where the Tm value for the PND-free CT-DNA is 69.1±0.01.
The DNA binding activity for these novel substituted piperazine linked pyrrolo naphtho diazepine hybrids has been examined by thermal denaturation studies using calf thymus (CT) DNA. […] The data for some of the compounds are included in Table 1 for comparison.

[1] = tested on: A549 lung cancer cell line; experiment: In vitro anticancer activity, MTT assay; assay type: cell-based, human; conditions: for IC50: Homo sapiens, A549
Method: (§1) In vitro biological activity studies were carried out at the pharmacology division, IICT, Hyderabad. The compounds were evaluated for in vitro anticancer activity against eight tumour cell lines derived from […] cancer types (breast, lung, liver, skeletal, kidney, prostrate, small intestine) as shown in Table 2. For each compound, dose response curves for each cell line were measured at a minimum of five concentrations at 10 fold dilutions. A protocol of 48 h continuous drug exposure was used and a MTT assay was used to estimate cell viability or growth. The concentration causing 50% inhibition (IC50) compared with the control was calculated. Some of the compounds have been evaluated for their in vitro cytotoxicity in eight cell lines from seven human cancer types. The results are expressed as IC50 determined relative to that of untreated control cells (Table-2).

[2] = tested on: HEPG2 liver cancer cell line; experiment: In vitro anticancer activity, MTT assay; assay type: cell-based, human; conditions: for IC50: Homo sapiens, HepG2
Method: as §1

[3] = tested on: MCF7 breast cancer cell line; experiment: In vitro anticancer activity, MTT assay; assay type: cell-based, human
Method: as §1

[4] = tested on: NCIH460 large cell lung cancer cell line; experiment: In vitro anticancer activity, MTT assay; assay type: cell-based, human
Method: as §1

[5] = tested on: PC-3 prostrate cancer cell line; experiment: In vitro anticancer activity, MTT assay; assay type: cell-based, human
Method: as §1

[6] = In vitro anticancer activity, MTT assay; assay type: cell-based; conditions: COS-1; kidney cancer cell line; MTT, 48 h continuous drug exposure
Method: as §1

[7] = tested on: COS-1 kidney cancer cell line; experiment: In vitro anticancer activity, MTT assay; assay type: cell-based
Method: as §1

[8] = tested on: IEC-6 small intestine cell line; experiment: In vitro anticancer activity, MTT assay; assay type: cell-based; conditions: for IC50: IEC-6
Method: as §1

[9] = tested on: L-6 skeletal cancer cell line; experiment: In vitro anticancer activity, MTT assay; assay type: cell-based; conditions: result in words
Method: as §1

L-6 = experiment: In vitro anticancer activity, MTT assay; assay type: cell-based; conditions: skeletal cancer cell line; MTT, 48 h continuous drug exposure
Method: as §1

Which “ΔTm after incubation at 37° C. for 0 hr” value (calf thymus DNA (CT-DNA); 0 hr at 37° C.) does the source give for COc1cc2cc3c(cc2cc1OCCN1CCN(c2ccccn2)CC1)C(=O)N1CCC[C@H]1C=N3 [23a, 9-Methoxy-8-(2-[4-(2-pyridyl)piperazino]ethoxy)-(13aS)-1,2,3,13a-tetrahydro-5H-pyrrolo[2,1-c][1,4]naphthodiazepin-5-one] here?
The value was 5.0 °C.

And the “ΔTm after incubation at 37° C. for 18 hrs” value (calf thymus DNA (CT-DNA); 18 hrs at 37° C.)?
The value was 6.8 °C.

And the IC50 ([1]; lung cancer cell line, MTT, 48 h continuous drug exposure, read-out: IC50 A549)?
The IC50 was 1990 nM.

And the IC50 ([1]; range over the listed compounds, exposure period of at least 48 hrs, read-out: IC50 against lung cancer cell lines)?
Its IC50 is 20 to 11900 nM.

And the “in-vitro cytotoxicity in lung cancer cell line (A549)” value ([1]; result in words)?
Its value is “exhibiting in-vitro cytotoxicity”.

And the IC50 ([2]; liver cancer cell line, MTT, 48 h continuous drug exposure, read-out: IC50 HEPG2)?
Its IC50 is 40 nM.

And the IC50 ([2]; range over the listed compounds, exposure period of at least 48 hrs, read-out: IC50 against liver cancer cell lines)?
The IC50 was 20 to 7320 nM.

And the “in-vitro cytotoxicity in liver cancer cell line (HEPG2)” value ([2]; result in words)?
The value was “exhibiting in-vitro cytotoxicity”.

What about the IC50 ([3]; Homo sapiens, MCF7, breast cancer cell line, MTT, 48 h continuous drug exposure) of the same molecule?
Its IC50 is 20 nM.

What about the “in-vitro cytotoxicity in breast cancer cell line (MCF-7)” value ([3]; result in words) of the same molecule?
The value was “exhibiting in-vitro cytotoxicity”.

And the IC50 ([4]; Homo sapiens, NCI-H460, large cell lung cancer cell line, MTT, 48 h continuous drug exposure)?
The IC50 was 110 nM.

And the “in-vitro cytotoxicity in large cell lung cancer cell line (NCIH460)” value ([4]; result in words)?
The value was “exhibiting in-vitro cytotoxicity”.

And the IC50 ([5]; Homo sapiens, prostrate cancer cell line, MTT, 48 h continuous drug exposure)?
The IC50 was 100 nM.

And the “in-vitro cytotoxicity in prostrate cancer cell line (PC-3)” value ([5]; result in words)?
The value was “exhibiting in-vitro cytotoxicity”.

And the IC50 [6]?
The IC50 was 4320 nM.

And the IC50 ([7]; COS-1, range over the listed compounds, exposure period of at least 48 hrs, read-out: IC50 against kidney cancer cell lines)?
Its IC50 is 800 to 4320 nM.

What about the “in-vitro cytotoxicity in kidney cancer cell line (COS-1)” value ([7]; result in words) of the same molecule?
The value was “exhibiting in-vitro cytotoxicity”.

And the IC50 ([8]; range over the listed compounds, exposure period of at least 48 hrs, read-out: IC50 against small intestine cancer cell lines)?
Its IC50 is 10 to 5840 nM.

What about the IC50 ([8]; small intestine cell line, MTT, 48 h continuous drug exposure, read-out: IC50 IEC-6) of the same molecule?
The IC50 was 10 nM.

What about the “in-vitro cytotoxicity in small intestine cancer cell line (IEC-6)” value ([8]; result in words) of the same molecule?
Its value is “exhibiting in-vitro cytotoxicity”.

What about the “in-vitro cytotoxicity in skeletal cancer cell line (L-6)” value [9] of the same molecule?
The value was “exhibiting in-vitro cytotoxicity”.

What about the IC50 (L-6) of the same molecule?
Its IC50 is 740 nM.
